Read-outs that look alike come from different tables or passages of the source.
What was measured:
NSD2 [1-1365] = NSD2 [1-1365] (Homo sapiens (Human), UniProt O96028); test: LC-MS/MS-based NSD2 enzymatic assay (SAH production); format: biochemical; details: read-out: NSD2 IC50
In short: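 SAH formed was measured by LC-MS/MS using d4-SAH as internal standard and an SAH calibration curve. Compounds were preincubated 20 min with NSD2 [1-1365] and SAM; mouse-liver nucleosome then started a 90 min room-temperature reaction (8 nM enzyme, 1 μM SAM, 400 nM nucleosome final, pH 8.0), stopped with TFA.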

[1] = test system: cellular H3K36me2 level in multiple myeloma cell line KMS11 (t(4;14)+); test: H3K36me2 cellular ELISA assay in KMS11-Par line; format: cell-based; details: Homo sapiens, KMS-11, ELISA, read-out: H3K36me2 ELISA in KMS11-Par
In short: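 After 72 h compound exposure, HCl-extracted histones from KMS11 (t(4;14)+) cells were probed by ELISA for H3K36me2 against total H3 with a chemiluminescence read-out. Cells were plated at 1,250/well in Opti-MEM plus B-27 and N2 the day before. A parallel CellTiter-Glo plate tracked viability.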

[2] = test system: cellular H3K36me2 level in thyroid carcinoma cell line CGTH-W-1 (NSD2 E1099K); test: H3K36me2 cellular ELISA assay in CGTH-W-1 line; format: cell-based; details: Homo sapiens, CGTH-W-1, 72 h, read-out: H3K36me2 ELISA in CGTH-W-1
In short: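 After 72 h compound treatment of NSD2 E1099K-mutant CGTH-W-1 cells, H3K36me2 and total H3 were quantified by ELISA with chemiluminescent read-out. A parallel-seeded plate gave cell viability by CellTiter-Glo.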

[3] = NSD2 biochemical activity, class symbols
[4] = KMS11-Par line (t(4;14)+), 72 hours treatment

NSD2 [1-1365], sequence (O96028 whole entry): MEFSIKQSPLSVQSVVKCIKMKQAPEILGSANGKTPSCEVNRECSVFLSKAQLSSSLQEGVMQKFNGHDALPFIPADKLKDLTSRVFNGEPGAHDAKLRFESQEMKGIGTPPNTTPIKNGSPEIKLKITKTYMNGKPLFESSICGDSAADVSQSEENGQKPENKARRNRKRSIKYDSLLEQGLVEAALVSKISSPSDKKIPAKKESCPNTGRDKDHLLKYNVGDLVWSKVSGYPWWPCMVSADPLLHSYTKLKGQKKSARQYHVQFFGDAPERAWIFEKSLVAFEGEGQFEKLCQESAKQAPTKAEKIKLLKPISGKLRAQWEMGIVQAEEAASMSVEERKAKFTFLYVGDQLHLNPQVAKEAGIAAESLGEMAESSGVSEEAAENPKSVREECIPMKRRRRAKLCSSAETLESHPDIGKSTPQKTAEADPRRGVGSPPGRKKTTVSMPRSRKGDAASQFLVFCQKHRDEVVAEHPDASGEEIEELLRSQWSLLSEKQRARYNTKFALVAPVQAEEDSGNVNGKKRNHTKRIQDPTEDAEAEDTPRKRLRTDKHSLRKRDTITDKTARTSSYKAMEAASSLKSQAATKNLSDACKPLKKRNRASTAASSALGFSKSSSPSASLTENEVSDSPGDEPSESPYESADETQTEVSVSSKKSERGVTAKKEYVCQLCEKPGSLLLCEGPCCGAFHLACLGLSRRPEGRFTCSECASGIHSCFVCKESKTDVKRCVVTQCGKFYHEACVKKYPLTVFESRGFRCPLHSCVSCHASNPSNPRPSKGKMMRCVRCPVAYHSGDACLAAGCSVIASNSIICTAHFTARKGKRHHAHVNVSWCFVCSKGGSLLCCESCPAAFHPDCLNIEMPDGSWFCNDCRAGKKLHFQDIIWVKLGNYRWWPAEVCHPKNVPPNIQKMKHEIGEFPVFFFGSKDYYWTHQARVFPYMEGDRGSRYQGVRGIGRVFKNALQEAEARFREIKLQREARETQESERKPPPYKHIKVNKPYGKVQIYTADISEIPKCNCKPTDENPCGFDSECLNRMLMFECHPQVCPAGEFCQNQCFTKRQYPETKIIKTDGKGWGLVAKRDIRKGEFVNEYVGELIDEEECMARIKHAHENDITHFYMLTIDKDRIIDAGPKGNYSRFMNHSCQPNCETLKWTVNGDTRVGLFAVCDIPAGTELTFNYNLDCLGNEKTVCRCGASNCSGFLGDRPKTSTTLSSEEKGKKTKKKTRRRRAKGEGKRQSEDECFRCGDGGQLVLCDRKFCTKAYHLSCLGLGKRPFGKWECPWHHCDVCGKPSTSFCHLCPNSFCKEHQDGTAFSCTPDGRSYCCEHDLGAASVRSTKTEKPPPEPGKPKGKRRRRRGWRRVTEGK

SMILES | IC50 (NSD2 [1-1365]; [3]) [nM] | IC50 [1, 4] [nM] | IC50 [2] [nM] | IC50 (NSD2 [1-1365]) [nM] | IC50 ([1]; KMS11-Par line, 72 hours) [nM]
Cc1ccc(-c2cc(Cn3cnc4c(N)ncnc43)c(N3CCC[C@](N)([C@@H](O)C(F)F)C3)cn2)c(C)c1 [Example 126, (R)-1-((R)-3-amino-1-(4-((6-amino-9H-purin-9-yl)methyl)-6-(2,4-dimethylphenyl)pyridin-3-yl)piperidin-3-yl)-2,2-difluoroethan-1-ol] | 1 to 10 | 1110 | 469 | – | –
Nc1ncnc2c1ncn2Cc1cc(-c2ccc(F)c(F)c2)ncc1N1CCCC(N)(C(=O)N2CCCCC2)C1 (stereo not drawn) [Example 86, (3-amino-1-(4-((6-amino-9H-purin-9-yl)methyl)-6-(3,4-difluorophenyl)pyridin-3-yl)piperidin-3-yl)(piperidin-1-yl)methanone] | 10 to 1000 | 33300 | 8690 | – | –
COc1ccc(-c2cc(Cn3cnc4c(N)ncnc43)c(N3CCC[C@](N)([C@H](O)C(F)F)C3)cn2)c(C(F)F)c1 [Example 163, (S)-1-((R)-3-amino-1-(4-((6-amino-9H-purin-9-yl)methyl)-6-(2-(difluoromethyl)-4-methoxyphenyl)pyridin-3-yl)piperidin-3-yl)-2,2-difluoroethan-1-ol] | 1 to 10 | 1850 | 204 | – | –
Nc1ncnc2c1ncn2Cc1cc(-c2ccc(F)c(F)c2)ncc1N1CCC[C@](N)([C@H](O)C(F)(F)F)C1 [Example 299, (S)-1-((R)-3-amino-1-(4-((6-amino-9H-purin-9-yl)methyl)-6-(3,4-difluorophenyl)pyridin-3-yl)piperidin-3-yl)-2,2,2-trifluoroethan-1-ol] | – | – | 1160 | 10 to 1000 | 9830
Cn1ccc(C(=O)C2(N)CCCN(c3cnc(-c4ccc(F)c(F)c4)cc3Cn3cnc4c(N)ncnc43)C2)n1 (stereo not drawn) [Example 110, (3-amino-1-(4-((6-amino-9H-purin-9-yl)methyl)-6-(3,4-difluorophenyl)pyridin-3-yl)piperidin-3-yl)(1-methyl-1H-pyrazol-3-yl)methanone] | 10 to 1000 | 6340 | 1360 | – | –
COc1ccc(-c2cc(Cn3cnc4c(N)ncnc43)c(N3CCC[C@](N)([C@@H](O)C(F)F)C3)cn2)c(C(F)F)c1 [Example 162, (R)-1-((R)-3-amino-1-(4-((6-amino-9H-purin-9-yl)methyl)-6-(2-(difluoromethyl)-4-methoxyphenyl)pyridin-3-yl)piperidin-3-yl)-2,2-difluoroethan-1-ol] | 1 to 10 | 440 | 86 | – | –
Nc1ncnc2c1ncn2Cc1cc(-c2ccc(F)c(Cl)n2)ncc1N1CCC[C@](N)([C@@H](O)C(F)F)C1 [Example 176, (R)-1-((R)-3-amino-1-(4-((6-amino-9H-purin-9-yl)methyl)-6′-chloro-5′-fluoro-[2,2′-bipyridin]-5-yl)piperidin-3-yl)-2,2-difluoroethan-1-ol] | – | – | 953 | 10 to 1000 | 8970
COc1ccc(-c2cc(Cn3cnc4c(N)ncnc43)c(N3CCC[C@](N)(c4cccc(Cl)n4)C3)cn2)c(F)c1F [Example 242, (R)-9-((5-(3-amino-3-(6-chloropyridin-2-yl)piperidin-1-yl)-2-(2,3-difluoro-4-methoxyphenyl)pyridin-4-yl)methyl)-9H-purin-6-amine] | – | – | 2710 | 10 to 1000 | 8190
Nc1ncnc2c1ncn2Cc1cc(-c2cc(F)cc(C(F)F)c2F)ncc1N1CCC[C@](N)([C@@H](O)C(F)F)C1 [Example 154, (R)-1-((R)-3-amino-1-(4-((6-amino-9H-purin-9-yl)methyl)-6-(3-(difluoromethyl)-2,5-difluorophenyl)pyridin-3-yl)piperidin-3-yl)-2,2-difluoroethan-1-ol] | 10 to 1000 | 9110 | 2930 | – | –
Nc1ncnc2c1ncn2Cc1cc(-c2ccc(F)c(F)c2)ncc1N1CCC[C@](N)(c2nc(Cl)ccc2F)C1 [Example 192, (R)-9-((5-(3-amino-3-(6-chloro-3-fluoropyridin-2-yl)piperidin-1-yl)-2-(3,4-difluorophenyl)pyridin-4-yl)methyl)-9H-purin-6-amine] | – | – | 731 | 10 to 1000 | 2180
COc1ccc(-c2cc(Cn3cnc4c(N)ncnc43)c(N3CCC[C@](N)([C@H](O)C(F)F)C3)cn2)cc1F [Example 127, (S)-1-((R)-3-amino-1-(4-((6-amino-9H-purin-9-yl)methyl)-6-(3-fluoro-4-methoxyphenyl)pyridin-3-yl)piperidin-3-yl)-2,2-difluoroethan-1-ol] | 1 to 10 | 901 | 262 | – | –
Cc1nc([C@@]2(N)CCCN(c3cnc(-c4ccc(F)cc4)cc3Cn3cnc4c(N)ncnc43)C2)ccc1F [Example 190, (R)-9-((5-(3-amino-3-(5-fluoro-6-methylpyridin-2-yl)piperidin-1-yl)-2-(4-fluorophenyl)pyridin-4-yl)methyl)-9H-purin-6-amine] | – | – | 258 | 1 to 10 | 687
Nc1ncnc2c1ncn2Cc1cc(-c2ccc(F)c(Cl)n2)ncc1N1CCC[C@](N)([C@H](O)C(F)F)C1 [Example 175, (S)-1-((R)-3-amino-1-(4-((6-amino-9H-purin-9-yl)methyl)-6′-chloro-g-fluoro-[2,2′-bipyridin]-5-yl)piperidin-3-yl)-2,2-difluoroethan-1-ol] | – | – | 534 | 10 to 1000 | 11300
Nc1ncnc2c1ncn2Cc1cc(-c2cnc(O)c(F)c2)ncc1N1CCCC(N)(c2cccc(Cl)n2)C1 (stereo not drawn) [Example 244, 5-(3-amino-3-(6-chloropyridin-2-yl)piperidin-1-yl)-4-((6-amino-9H-purin-9-yl)methyl)-5′-fluoro-[2,3′-bipyridin]-6′-ol] | – | – | 12500 | 10 to 1000 | 33300
Nc1ncnc2c1ncn2Cc1cc(-c2ccc(F)cc2)ncc1N1CCC[C@](N)(c2cccc(C3CC3)n2)C1 [Example 182, (R)-9-((5-(3-amino-3-(6-cyclopropylpyridin-2-yl)piperidin-1-yl)-2-(4-fluorophenyl)pyridin-4-yl)methyl)-9H-purin-6-amine] | – | – | 97.5 | 1 to 10 | 142
CC1CCCCN1C(=O)C1(N)CCCN(c2cnc(-c3ccc(F)c(F)c3)cc2Cn2cnc3c(N)ncnc32)C1 (stereo not drawn) [Example 87, (3-amino-1-(4-((6-amino-9H-purin-9-yl)methyl)-6-(3,4-difluorophenyl)pyridin-3-yl)piperidin-3-yl)(2-methylpiperidin-1-yl)methanone] | 10 to 1000 | 6420 | 1600 | – | –
Nc1ncnc2c1ncn2Cc1cc(-c2ccc(Cl)c(F)c2)ncc1N1CCC[C@](N)([C@@H](O)C(F)F)C1 [Example 124, (R)-1-((R)-3-amino-1-(4-((6-amino-9H-purin-9-yl)methyl)-6-(4-chloro-3-fluorophenyl)pyridin-3-yl)piperidin-3-yl)-2,2-difluoroethan-1-ol] | 1 to 10 | 848 | 159 | – | –
Nc1ncnc2c1ncn2Cc1cc(-c2ccc(F)cc2C(F)F)ncc1N1CCC[C@](N)([C@H](O)C(F)F)C1 [Example 159, (S)-1-((R)-3-amino-1-(4-((6-amino-9H-purin-9-yl)methyl)-6-(2-(difluoromethyl)-4-fluorophenyl)pyridin-3-yl)piperidin-3-yl)-2,2-difluoroethan-1-ol] | 1 to 10 | 1130 | 140 | – | –

Reference: US11420970B1 (NOVARTIS AG, priority 2019, dated 2022)
